Reference: publication PMC5028038, “Demethoxycurcumin Is A Potent Inhibitor of P-Type ATPases from Diverse Kingdoms of Life” (PLoS ONE, 2016)
In brackets after ≈: the same amount, converted by molar mass. Like-named read-outs stand apart in the source and are kept apart here.

Key:
[1] = target: T1, yeast plasma membrane H+-ATPase Pma1p (Saccharomyces cerevisiae, UniProt P05030); assay: ATP hydrolysis (Baginski) assay on Pma1p in yeast plasma membranes; assay type: biochemical, S. cerevisiae; conditions: for effect on Pma1p ATPase activity: 50 μM compound; for slope factor H of inhibition curve, Pma1p: variable slope fit
T1 construct: made in house; host or cells: S. cerevisiae strain RS-72 (chromosomal PMA1 under GAL1 promoter, repressed on glucose), plasma membranes isolated
T1 sequence (P05030 whole entry): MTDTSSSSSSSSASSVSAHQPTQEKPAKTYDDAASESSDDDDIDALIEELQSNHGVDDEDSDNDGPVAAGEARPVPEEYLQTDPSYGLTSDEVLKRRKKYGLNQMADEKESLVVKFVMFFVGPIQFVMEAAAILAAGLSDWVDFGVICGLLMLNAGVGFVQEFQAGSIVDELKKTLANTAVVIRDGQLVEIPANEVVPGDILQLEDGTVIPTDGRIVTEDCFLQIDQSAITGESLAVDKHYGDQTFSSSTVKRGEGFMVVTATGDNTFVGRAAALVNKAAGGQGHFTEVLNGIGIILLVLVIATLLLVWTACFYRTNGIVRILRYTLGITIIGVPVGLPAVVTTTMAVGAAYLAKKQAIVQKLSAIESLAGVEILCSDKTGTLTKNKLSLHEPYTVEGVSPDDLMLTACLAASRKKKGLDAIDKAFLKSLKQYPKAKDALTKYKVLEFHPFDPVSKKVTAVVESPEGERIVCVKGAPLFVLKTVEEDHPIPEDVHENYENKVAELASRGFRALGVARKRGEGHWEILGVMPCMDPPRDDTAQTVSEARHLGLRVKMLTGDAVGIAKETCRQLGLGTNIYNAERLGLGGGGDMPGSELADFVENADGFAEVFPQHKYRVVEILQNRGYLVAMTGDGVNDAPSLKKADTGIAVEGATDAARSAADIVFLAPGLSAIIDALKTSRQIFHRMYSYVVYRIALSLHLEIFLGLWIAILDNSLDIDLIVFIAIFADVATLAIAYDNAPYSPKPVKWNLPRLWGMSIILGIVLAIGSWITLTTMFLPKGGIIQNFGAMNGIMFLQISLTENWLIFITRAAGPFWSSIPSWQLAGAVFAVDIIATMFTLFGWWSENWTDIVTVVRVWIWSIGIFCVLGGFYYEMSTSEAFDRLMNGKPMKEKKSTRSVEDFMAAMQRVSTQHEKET
Text: (§1) The S. cerevisiae strain RS-72 (MATa ade1-100 his4-519 leu2-3, 112) was transformed according to the lithium acetate/single-stranded carrier DNA/polyethylene glycol method, and cultured essentially as described previously. In RS-72, the promoter of the endogenous yeast PM H^+-ATPase PMA1 gene was replaced by the galactose-dependent GAL1 promoter. This strain grew in media containing galactose, whereas growth in glucose-based medium requires the complementation of the yeast PM H^+-ATPase with a functional PM H^+-ATPase expressed from a plasmid. A 2-micron yeast expression vector was used for expression of different versions of the Arabidopsis thaliana PM H^+-ATPase AHA2 (pMP 1625); a 92-amino acid C-terminal truncated mutation, aha2∆92 (pMP 132); or the wild-type S. cerevisiae PM H^+-ATPase PMA1 (pMP 400) placed under the control of the PMA1 promoter. The use of RS-72 allows for purification of microsomes with a very low endogenous ATPase activity compared to RS-72 transformed with an H^+-ATPase carrying plasmid.
(§2) Yeast expressing AHA2 and Pma1p PM H^+-ATPase, respectively, were grown and harvested essentially as described. The cells were grown with glucose as carbon source in order to ensure than no endogenous plasma membrane H^+-ATPase is expressed. Microsomes and plasma membranes were isolated with all manipulations performed at 4°C. The final pellets containing the isolated membranes were collected and homogenized in GTED20 buffer (20% [v/v] glycerol, 10 mM Tris-HCl pH 7.5, 1 mM EDTA pH 8.0, 1 mM DTT) and stored at—80°C.
(§3) ATPase activity was determined by the Baginski assay as described previously using 2–5 μg of PM protein. The assays were performed at 30°C in 300 μL volumes with 3 mM ATP, pH 6.5, for determination of AHA2 activity, or with 5 mM ATP, pH 5.9 for Pma1p activity. The assay medium 20 mM MOPS, 50 mM KNO3 (to inhibit vacuolar ATPase), 5 mM NaN3 (to inhibit mitochondrial ATPase), 3.5 mM Na2MoO4 (to inhibit acid phosphatase), 1 mM Mg^2+ free in solution, and the indicated concentrations of MgATP. IC50 values for compound inhibition were determined by pre incubating PM with different concentrations of compound for 30 min at room temperature. For kinetics studies, the concentration of ATP was varied between 0.125 and 8 mM using an ATP regenerating system (5 mM phosphoenolpyruvate and 50 μg/mL pyruvate kinase).
(§4) The kinetic of inhibition for DMCM was determined by monitoring the rate of ATP hydrolysis reaction in the presence of increasing ATP substrate concentration. All kinetic data were gathered from experiments performed in the cuvette-based assay, as described above. The data were used in Hanes-Woolf analysis followed by fitting to the appropriate Michaelis-Menten inhibition equation (competitive, noncompetitive, uncompetitive, or mix type inhibition). The kinetic parameters Vmax, Km, Ki were estimated by nonlinear regression using GraphPad Prism 5.0 (GraphPad Software Inc.). For evaluation of inhibitor potency, IC50 values were calculated by using the equation: A=100/1+10^(LogIC50−LogC)×H where A is the observed % ATPase activity in the presence of compound; C, the compound concentration; IC50, the concentration that caused 50% inhibition of the maximal compound effect; and H, the slope factor.

[2] = system: S. cerevisiae strain RS-72; assay: Drop test, yeast growth, all tested RS-72 strains; assay type: cell-based; conditions: Saccharomyces cerevisiae, RS72, 72 h, read-out: Minimum inhibitory concentration (MIC), yeast growth
Text: as §1
(§5) Transformed yeast cells, cultured on synthetic galactose (SG) agar medium supplemented with adenine 40 μg/mL and L-histidine 20 μg/mL (SGAH plates) for 3 days at 30°C, were suspended in H2O to 1x solution (OD660 = 1). Serial dilutions of 0.1, 0.01, 0.001 x of the cells were then prepared and spotted adjacently onto synthetic minimal media plates containing either 2% galactose or 2% glucose at pH 5.5 (SGAH or SDAH), incorporated with different concentrations of tested compound. Growth results were recorded after incubation for 3 days at 30°C. Minimum inhibitory concentrations (MIC values) were determined as the lowest concentrations of compounds where no visible growth of cells was observed.

[3] = target: T2, A. thaliana PM H+-ATPase isoform AHA2 (Arabidopsis thaliana, UniProt P19456); assay: ATP hydrolysis (Baginski) assay on AHA2 in yeast plasma membranes; assay type: biochemical; conditions: for effect on AHA2 ATPase activity: 50 μM compound; for slope factor H of inhibition curve, AHA2: variable slope fit
T2 construct: made in house; host or cells: S. cerevisiae strain RS-72, plasma membranes isolated
T2 sequence (P19456 1-948): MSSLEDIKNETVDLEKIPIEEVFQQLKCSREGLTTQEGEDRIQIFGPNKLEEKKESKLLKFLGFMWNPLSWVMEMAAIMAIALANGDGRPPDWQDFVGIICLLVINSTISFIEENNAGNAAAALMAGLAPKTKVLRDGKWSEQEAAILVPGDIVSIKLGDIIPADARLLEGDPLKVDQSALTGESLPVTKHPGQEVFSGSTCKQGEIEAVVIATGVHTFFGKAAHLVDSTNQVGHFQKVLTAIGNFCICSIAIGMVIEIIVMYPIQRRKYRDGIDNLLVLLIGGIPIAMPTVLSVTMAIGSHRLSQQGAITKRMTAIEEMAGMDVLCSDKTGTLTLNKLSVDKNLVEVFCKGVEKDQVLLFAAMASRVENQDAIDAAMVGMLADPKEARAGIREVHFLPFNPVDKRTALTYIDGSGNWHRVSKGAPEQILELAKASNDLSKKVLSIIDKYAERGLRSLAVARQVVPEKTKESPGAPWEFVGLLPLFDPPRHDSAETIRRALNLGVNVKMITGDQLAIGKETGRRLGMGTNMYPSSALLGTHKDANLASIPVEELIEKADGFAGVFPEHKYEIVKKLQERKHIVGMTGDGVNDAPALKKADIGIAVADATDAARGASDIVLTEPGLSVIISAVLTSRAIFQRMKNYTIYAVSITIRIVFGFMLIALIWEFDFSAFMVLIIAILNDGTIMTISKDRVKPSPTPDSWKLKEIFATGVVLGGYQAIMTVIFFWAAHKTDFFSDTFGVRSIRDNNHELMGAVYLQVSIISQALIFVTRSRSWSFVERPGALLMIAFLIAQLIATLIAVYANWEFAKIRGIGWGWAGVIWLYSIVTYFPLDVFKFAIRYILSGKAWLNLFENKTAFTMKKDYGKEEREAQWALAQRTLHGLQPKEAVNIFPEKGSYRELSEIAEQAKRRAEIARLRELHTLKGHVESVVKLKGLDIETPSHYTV
Text: as §1, §2, §3, §4

[4] = system: S. cerevisiae RS-72 expressing AHA2; assay: Drop test, yeast RS-72 expressing AHA2; assay type: cell-based; conditions: Saccharomyces cerevisiae, 72 h; no visible growth after 3 days at 30°C
Text: as §1, §5

[5] = system: S. cerevisiae RS-72 expressing Pma1p; assay: Drop test, yeast RS-72 expressing Pma1p; assay type: cell-based; conditions: Saccharomyces cerevisiae, 72 h; no visible growth after 3 days at 30°C
Text: as §1, §5

[6] = target: SERCA1a (Ca2+-ATPase) (Oryctolagus cuniculus, UniProt P04191); assay: SERCA ATP hydrolysis, NADH-coupled spectrophotometric assay; assay type: biochemical, rabbit; conditions: purified leaky SERCA preparation
SERCA1a (Ca2+-ATPase), sequence (P04191 1-994 isoform P04191-2): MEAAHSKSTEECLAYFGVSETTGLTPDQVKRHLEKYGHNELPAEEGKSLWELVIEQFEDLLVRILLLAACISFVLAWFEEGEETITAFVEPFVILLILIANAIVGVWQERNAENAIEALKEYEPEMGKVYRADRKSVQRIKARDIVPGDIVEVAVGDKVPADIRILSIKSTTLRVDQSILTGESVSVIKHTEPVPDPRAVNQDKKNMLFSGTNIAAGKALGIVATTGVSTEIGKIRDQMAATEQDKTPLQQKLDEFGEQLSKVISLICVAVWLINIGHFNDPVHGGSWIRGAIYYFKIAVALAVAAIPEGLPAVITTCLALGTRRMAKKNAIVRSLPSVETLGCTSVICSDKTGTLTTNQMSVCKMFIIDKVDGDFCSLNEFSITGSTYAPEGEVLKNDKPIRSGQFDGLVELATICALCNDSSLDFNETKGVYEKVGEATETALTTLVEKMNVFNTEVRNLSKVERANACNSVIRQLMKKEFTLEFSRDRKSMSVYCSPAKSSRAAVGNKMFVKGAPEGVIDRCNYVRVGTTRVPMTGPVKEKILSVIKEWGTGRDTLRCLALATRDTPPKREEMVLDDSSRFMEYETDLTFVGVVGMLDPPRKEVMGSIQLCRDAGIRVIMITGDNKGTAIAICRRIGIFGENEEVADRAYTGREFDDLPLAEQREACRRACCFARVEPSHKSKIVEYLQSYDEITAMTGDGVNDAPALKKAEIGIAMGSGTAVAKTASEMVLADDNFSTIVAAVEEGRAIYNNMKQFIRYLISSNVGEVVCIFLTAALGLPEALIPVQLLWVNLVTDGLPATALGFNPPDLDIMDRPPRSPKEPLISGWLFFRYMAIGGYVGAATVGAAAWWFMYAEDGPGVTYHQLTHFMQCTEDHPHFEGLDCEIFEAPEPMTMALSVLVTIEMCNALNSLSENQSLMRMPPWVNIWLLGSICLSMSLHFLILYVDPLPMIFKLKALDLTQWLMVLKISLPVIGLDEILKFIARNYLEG
Text: Sarcoplasmic reticulum vesicles, prepared from the leg and back muscles of rabbits, were used to obtain purified SERCA1a by extraction with a low concentration of deoxycholate according to established methods. The resulting membrane fragments were used for enzymatic assays to test the effect of the curcuminoid compounds on ATP hydrolysis spectrophotometrically by NADH oxidation with an ATP regenerating system.

[7] = parameters: method as in PMID 17999464; conditions: due to fast metabolism; cited from earlier work
[8] = parameters: method as in doi:10.1016/S0260-8774(02)00264-9; conditions: cited from earlier work
[9] = system: PM H+-ATPase in spinach plasma membrane vesicles; assay: Proton pumping assay (ACMA fluorescence quenching) in spinach plasma membrane vesicles; assay type: biochemical, Spinacia oleracea; conditions: 5–20 μM
Description: Baby spinach (Spinacia oleracea) leaves (50 g) were cut into small pieces and homogenized. Subsequently plasma membranes were isolated by two-phase partitioning according to [58]. Plasma membranes were collected and homogenized in the phase buffer containing 330 mM sucrose, 5 mM potassium phosphate pH 7.8, 2 mM KCl, 0.1 mM EDTA, and 1 mM DTT and stored at—80°C.
Inside-out vesicles were created from spinach plasma membranes by adding the detergent Brij-58 to the buffer. Proton transport into the vesicles was determined as described by monitoring fluorescence quenching (excitation at 412 nm, emission at 480 nm) of 9-amino-6-chloro-2-methoxyacridine (ACMA). The reaction medium contained 20 mM MOPS-KOH, pH 7.0, 40 mM K2SO4, 25 mM KNO3, 2 mM ATP, 1 μM ACMA, 60 nM valinomycin and 0.05% (w/v) Brij-58. Proton pumping reactions were started by the addition of MgSO4 to a final concentration of 2 mM, and the proton gradient was collapsed by the addition of 10 μM nigericin.

[10] = 3 mM ATP, pH 6.5, 30°C, 30 min preincubation, read-out: IC50, ATP hydrolysis, AHA2

| Structure (SMILES) | effect on Pma1p ATPase activity [1] | slope factor H of inhibition curve, Pma1p [1] | effect on AHA2 ATPase activity [3] | slope factor H of inhibition curve, AHA2 [3] | MIC [4] [µM] | MIC [5] [µM] | IC50 [1] [µM] | MIC [2] [µM] | IC50 [3, 10] [µM] | IC50 [6] [µM] | also measured |
| --- | --- | --- | --- | --- | --- | --- | --- | --- | --- | --- | --- |
| O=C(/C=C(O)/C=C/c1ccc(O)cc1)/C=C/c1ccc(O)cc1 [BDCM (3), bisdemethoxycurcumin] | significantly inhibited | ~1 | significantly inhibited | ~1 | 200 to 210 (≈ 61.7 to 64.7 µg/mL) | 210 to 220 (≈ 64.7 to 67.8 µg/mL) |  |  |  |  | IC50 ([1]; 5 mM ATP, pH 5.9, 30°C, 30 min preincubation, read-out: IC50, ATP hydrolysis, Pma1p): 90.6 ± 1.1 µM; MIC ([2]; approximate values, 3 days at 30°C): ~200 µM (≈ 61.7 µg/mL); IC50 [3]: 76.7 ± 1.1 µM |
| COc1cc(/C=C/C(=O)/C=C(O)/C=C/c2ccc(O)c(OC)c2)ccc1O [CM (1), Curcumin] | significantly inhibited | ~1 | significantly inhibited | ~1 | 40 to 50 (≈ 14.7 to 18.4 µg/mL) | 60 to 70 (≈ 22.1 to 25.8 µg/mL) | 76.1 ± 1 | ~50 (≈ 18.4 µg/mL) | 60.4 ± 1.1 | 3.9 ± 0.4 | bioavailability [7]: poor bioavailability |
| COc1cc(/C=C/C(=O)/C=C(O)/C=C/c2ccc(O)cc2)ccc1O [DMCM (2), demethoxycurcumin] | significantly inhibited | 1.5 | significantly inhibited | 2.4 | 20 to 30 (≈ 6.77 to 10.2 µg/mL) | 40 to 50 (≈ 13.5 to 16.9 µg/mL) | 28.9 ± 1 | ~30 (≈ 10.2 µg/mL) | 18.7 ± 1 | 2.6 ± 0.9 | Ki [1]: 27.7 ± 1.2 µM; Pma1p Vmax ([1]; 10 μM demethoxycurcumin): 1.00 ± 0.13 µM/mg/min; Pma1p Vmax ([1]; 20 μM demethoxycurcumin): 0.63 ± 0.05 µM/mg/min; Pma1p Vmax ([1]; 30 μM demethoxycurcumin): 0.48 ± 0.04 µM/mg/min; Pma1p Vmax ([1]; 40 μM demethoxycurcumin): 0.39 ± 0.04 µM/mg/min; mode of inhibition versus ATP, Pma1p ([1]; DMCM 0-40 μM, ATP 0.125–8 mM): noncompetitive inhibitor; AHA2 Vmax ([3]; 10 μM demethoxycurcumin): 0.46 ± 0.02 µM/mg/min; AHA2 Vmax ([3]; 20 μM demethoxycurcumin): 0.35 ± 0.01 µM/mg/min; AHA2 Vmax ([3]; 30 μM demethoxycurcumin): 0.19 ± 0.01 µM/mg/min; AHA2 Vmax ([3]; 40 μM demethoxycurcumin): 0.11 ± 0.01 µM/mg/min; fold lower IC50 value in comparison to CM or BDCM ([3]; AHA2 and Pma1p ATP hydrolysis): 2- to 4 fold; mode of inhibition versus ATP, AHA2 ([3]; DMCM 0-40 μM, ATP 0.125–8 mM): noncompetitive inhibitor; Ki ([3]; in vitro, noncompetitive model, ATP 0.125-8 mM): 14.7 ± 0.7 µM; chemical stability compared with CM [8]: more stable; effect on H+ pumping activity [9]: dramatically reversed |
